Key:
S. aureus = experiment: Minimum inhibitory concentration of gentamicin; assay type: cell-based; conditions: S. aureus used in this study
Method: The minimum inhibitory concentration of gentamicin for the S. aureus used in this study is 2-4 μg/ml. […] No effect was found in these wells: the O.D. was approximately 0.7. In the wells that contained S. aureus in TSB only, O.D. of approximately 0.6 was found. In view of the results of gentamicin release (FIG. 14) and the profound bacterial inhibition by the diluted solutions (FIG. 15), there is probably a significant antibacterial activity in the release medium at an earlier stage.

[1] = mouse
Method: Inbred 8-10 week old female C3H mice, weighing about 20 g (Harlan Laboratories, Israel) were kept under specific pathogen free (SPF) conditions and given free access to irradiated sterile food and acidified water throughout the experiment. Blank polymer and pasty formulations containing paclitaxel (5% and 10% w/w) were injected subcutaneously to the backspace via a 23G needle into 12 groups of four C3H mice in each group. […] After 1, 7, 21 and 70 days, mice were sacrificed by cervical dislocation. The polymer implant was taken out, weighed before and after lyophilization and examined for paclitaxel content in the remaining formulation.

[2] = Solubility of bupivacaine free base in the polymer; assay type: physicochemical
Method: Bupivacaine free base (5, 7, 10% w/w) was incorporated in the liquid polymers by mixing the drug powder in the polymer at 40° C. and filling 1 ml syringe with this formulation. This formulation is a semi-solid at room temperature and liquid at body temperature. […] The free base bupivacaine formed a clear solution in the polymer while the HCl salt was a fine dispersion.
Bupivacaine was incorporated in the polymer without affecting the polymer molecular weight, as confirmed by GPC. Bupivacaine free base (BFB) is easily soluble in P(SA-RA) up to 15% w/w BFB. The hydrochloride salt dispersed well in the polymer without affecting its viscosity at least up to 15% w/w loading. P(SA-RA) 2:8 and 3:7 formulations containing 5% and 7% of bupivacaine constantly released the drug at a first order profile with about 60% of the incorporated drug was released during 7 days in buffer, formulation containing 10% released approximately 70% of its content during this period. For all experiments, the higher MW polymers (Mw=18,000) release the drug at a slower rate, between 10 and 20% less the amount released at each time point, compared to the low MW polymers (Mw=5,000).

Compound: gentamicin
- minimum inhibitory concentration (S. aureus): 2 to 4 µg/mL

Compound: Poly(sebacic acid-co-ricinoleic acid ester anhydride) 2:8 [P(SA:RA) (2:8)]
- in vivo degradation [1]: completely degraded

Compound: CCCCN1CCCCC1C(=O)Nc1c(C)cccc1C (stereo not drawn) [BFB, Bupivacaine]
- solubility in P(SA-RA) [2]: up to 15 % w/w

Reference: patent US8575092B2, “Gelling hydrophobic injectable polymer compositions” (Efrat Biopolymers Ltd., priority 2005, dated 2013)
